Measured values: ChEMBL document CHEMBL1201862, “PubChem BioAssay data set” (2004)
Active and inactive are the calls of the source.

Assays:
[1] = P. falciparum Dd2 growth inhibitors, dose response, SYBR Green, cherry-picked samples (AID 1159567); assay type: functional, cell-based
[2] = toxicity to human hepatoma HepG2 cells – cell-based, cherry-picked samples, cytotoxicity control, dose response (AID 1159577); assay type: functional
[3] = target: T1, Apoptotic protease-activating factor 1 (Homo sapiens, UniProt O14727); assay type: functional
T1 sequence (O14727 whole entry): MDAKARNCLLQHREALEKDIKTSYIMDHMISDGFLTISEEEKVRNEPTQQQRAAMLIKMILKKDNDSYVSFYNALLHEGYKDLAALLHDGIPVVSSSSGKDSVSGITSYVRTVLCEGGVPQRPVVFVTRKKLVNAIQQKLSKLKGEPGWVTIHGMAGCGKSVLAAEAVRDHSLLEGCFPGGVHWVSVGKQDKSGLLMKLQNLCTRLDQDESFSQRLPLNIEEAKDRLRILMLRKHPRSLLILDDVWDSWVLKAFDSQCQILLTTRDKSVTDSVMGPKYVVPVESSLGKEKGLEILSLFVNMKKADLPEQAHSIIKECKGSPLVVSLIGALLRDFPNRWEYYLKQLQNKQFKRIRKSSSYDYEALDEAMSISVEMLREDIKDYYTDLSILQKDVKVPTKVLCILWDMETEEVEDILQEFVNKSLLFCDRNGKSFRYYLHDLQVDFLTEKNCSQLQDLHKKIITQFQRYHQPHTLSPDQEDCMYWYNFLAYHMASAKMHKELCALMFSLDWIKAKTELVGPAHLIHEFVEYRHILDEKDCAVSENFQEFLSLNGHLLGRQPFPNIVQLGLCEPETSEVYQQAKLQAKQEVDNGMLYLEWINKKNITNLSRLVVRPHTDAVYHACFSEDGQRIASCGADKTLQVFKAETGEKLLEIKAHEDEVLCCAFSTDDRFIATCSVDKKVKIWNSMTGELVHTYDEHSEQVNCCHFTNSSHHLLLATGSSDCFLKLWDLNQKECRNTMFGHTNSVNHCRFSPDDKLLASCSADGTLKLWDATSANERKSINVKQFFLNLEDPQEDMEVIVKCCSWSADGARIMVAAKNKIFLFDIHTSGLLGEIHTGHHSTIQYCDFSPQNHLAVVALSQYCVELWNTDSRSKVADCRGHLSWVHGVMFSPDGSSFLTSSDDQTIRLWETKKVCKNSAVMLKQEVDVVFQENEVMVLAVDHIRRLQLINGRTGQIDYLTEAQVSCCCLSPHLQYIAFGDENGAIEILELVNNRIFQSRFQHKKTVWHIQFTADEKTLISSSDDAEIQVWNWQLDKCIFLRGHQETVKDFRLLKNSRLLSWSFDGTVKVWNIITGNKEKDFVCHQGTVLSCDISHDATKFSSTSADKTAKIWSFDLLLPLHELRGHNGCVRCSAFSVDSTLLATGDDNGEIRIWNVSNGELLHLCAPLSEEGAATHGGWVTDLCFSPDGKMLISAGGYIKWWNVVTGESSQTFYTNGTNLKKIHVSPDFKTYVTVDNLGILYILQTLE

INS1 = test: INS-1E survival protection against cytokine death – cell-based, luminescence, retest, dose response (AID 449756); assay type: functional; conditions: Rattus norvegicus;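 note: cell death triggered by IL-1 beta plus TNF-alpha plus IFN-gamma mixture; protective hits raise ATP signal compared with cytokine alone wells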
[4] = target: FAD-linked sulfhydryl oxidase ALR (Homo sapiens, UniProt P55789); test: ALR-catalysed DTT oxidation blockers – biochemical, H2O2 detection, luminescence, cherry-pick, dose response (AID 493248)
[5] = target: T2, Endoribonuclease toxin MazF (Escherichia coli K-12, UniProt P0AE70); test: activation of MazEF endoribonuclease cleavage – biochemical, fluorescence, single-stranded RNA substrate, uHTS hits, dose response (AID 588481); assay type: functional
T2 sequence (P0AE70 whole entry): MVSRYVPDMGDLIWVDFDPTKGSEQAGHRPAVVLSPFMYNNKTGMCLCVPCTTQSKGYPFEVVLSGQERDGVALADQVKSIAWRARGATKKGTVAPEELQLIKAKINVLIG

[6] = target: T2, Endoribonuclease toxin MazF; test: substrate-only fluorescence increase artefacts – biochemical, single-stranded RNase substrate, counter-screen for MazEF activator project, dose response (AID 588502); assay type: functional
Caspase-6 = target: T3, Caspase-6 (Homo sapiens, UniProt P55212); test: inhibition of CASP6 peptide cleavage – biochemical, VEID-R110 fluorescence, cherry-pick, dose response (AID 720632)
T3 sequence (P55212 whole entry): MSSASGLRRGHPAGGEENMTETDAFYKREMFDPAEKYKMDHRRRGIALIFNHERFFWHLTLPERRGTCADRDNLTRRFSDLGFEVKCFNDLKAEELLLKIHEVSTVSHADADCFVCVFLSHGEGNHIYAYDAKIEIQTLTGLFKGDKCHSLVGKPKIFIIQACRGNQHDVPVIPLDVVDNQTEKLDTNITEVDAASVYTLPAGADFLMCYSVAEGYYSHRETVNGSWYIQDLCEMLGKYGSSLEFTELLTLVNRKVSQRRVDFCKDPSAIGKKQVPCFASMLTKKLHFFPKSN

[7] = luciferase reporter signal suppression in cells – H4 neuroglioma cells, luminescence, dose response (AID 1990); assay type: functional, cell-based
[8] = system: Streptococcus sp. 'group A'; test: Streptococcus pyogenes SK(-)GAS viability under kanamycin – luminescence, BacTiterGlo, confirmation, counter-screen for streptokinase expression inhibitor project, dose response (AID 1900); assay type: functional, organism-based
BJ [9] = test: BJ-TERT fibroblast viability loss – cell-based, RAS-independent, luminescence, dose response (AID 1933); assay type: functional; conditions: Homo sapiens
[10] = Luminescence Cell-Based Dose Response HTS to Identify Inhibitors of 5'UTR Stem-Loop Driven Prion Protein mRNA Translation in H4 Neuroglioblastoma Cells. [Related pubchem assays: 1827 (Project Summary), 1813 (Primary HTS)]; assay type: functional
[11] = alpha-synuclein stem-loop luciferase translation blockers – H4 neuroglioma cells, luminescence, confirmation (AID 1988); assay type: functional, cell-based
BJ [12] = test: cells; assay type: functional, cell-based; conditions: Homo sapiens
[13] = microbe, parasite or virus in culture; assay type: functional; conditions: Mycobacterium tuberculosis
BJ [14] = test: BJ-TERT-LT-ST fibroblast viability loss – cell-based, RAS-independent, luminescence, dose response (AID 1935); assay type: functional; conditions: Homo sapiens;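 note: BJ fibroblasts immortalized with TERT plus LT and ST oncogenes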
[15] = DRD fibroblast viability loss – cell-based, non-viral oncogenic, luminescence, dose response (AID 1934); assay type: functional; conditions: Homo sapiens
Streptococcus = test: GAS UMAA2166 growth inhibition – luminescence, BacTiterGlo, counter-screen for streptokinase expression inhibitor project, dose response (AID 1915); assay type: functional, organism-based;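 note: potency for reduction of bacterial viability or growth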
BJ [16] = test: growth inhibition of engineered Ras-driven BJ cells – cell-based, alamar blue fluorescence, cherrypicked samples, dose response (AID 2631); assay type: functional; conditions: Homo sapiens;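 note: confirmatory dose-response assay in RAS-dependent BJ fibroblasts engineered with TERT, LT and ST, with cytotoxicity read by fluorescence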
[17] = reduction of Shn3 3'UTR-driven luciferase in osteoblasts – cell-based, Clone20 osteoblasts, firefly luciferase, cherry-picked, dose response (AID 624132); assay type: functional;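 note: firefly luciferase luminescence from reporter carrying the Shn3 3'UTR in osteoblasts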
[18] = loss of viability in HepG2 cells – cell-based, CellTiter-Glo, cherry-picked, cytotoxicity control for Shn3 inhibitor project, dose response (AID 624134); assay type: functional
[19] = non-specific 3'UTR reporter inhibition in Clone20-Shn3RL – cell-based, Renilla luciferase, cherry-picked, counter-screen for Shn3 inhibitor project, dose response (AID 624133); assay type: functional
Paired box protein Pax-8 = Paired box protein Pax-8 (Homo sapiens, UniProt Q06710); test: PAX8 transcriptional activity inhibition in RMG-I – RMG-I cells, luciferase, cherry-pick, dose response (AID 687027); assay type: functional, cell-based;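 note: luciferase reporter driven by Pax8 target thyroperoxidase promoter measured by SteadyGlo luminescence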
[20] = OVCAR-3 cell viability loss – plate reader, dry powder samples, PAX8 inhibitor project, dose response (AID 743044); assay type: functional, cell-based

Paired box protein Pax-8, sequence (Q06710 whole entry): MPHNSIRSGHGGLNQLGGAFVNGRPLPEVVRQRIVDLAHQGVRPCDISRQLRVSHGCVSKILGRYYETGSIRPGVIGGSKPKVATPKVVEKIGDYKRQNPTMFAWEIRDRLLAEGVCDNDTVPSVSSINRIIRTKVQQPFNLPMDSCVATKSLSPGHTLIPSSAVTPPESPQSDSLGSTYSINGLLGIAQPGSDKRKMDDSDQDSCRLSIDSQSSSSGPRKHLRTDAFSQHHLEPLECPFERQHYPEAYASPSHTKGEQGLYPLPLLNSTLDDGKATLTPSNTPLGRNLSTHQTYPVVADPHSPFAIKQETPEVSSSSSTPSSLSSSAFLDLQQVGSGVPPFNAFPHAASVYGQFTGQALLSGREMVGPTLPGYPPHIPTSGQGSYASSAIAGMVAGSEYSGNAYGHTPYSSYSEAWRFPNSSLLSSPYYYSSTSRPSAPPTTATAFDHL
FAD-linked sulfhydryl oxidase ALR, sequence (P55789 whole entry): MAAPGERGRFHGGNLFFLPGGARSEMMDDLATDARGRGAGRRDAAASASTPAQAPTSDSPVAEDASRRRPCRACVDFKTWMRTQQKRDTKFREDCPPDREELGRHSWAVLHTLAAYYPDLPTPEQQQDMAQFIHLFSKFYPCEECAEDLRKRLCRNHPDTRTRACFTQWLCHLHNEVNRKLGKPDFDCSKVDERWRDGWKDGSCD

With O=C(c1ccc2c(c1)OCO2)N1C[C@@H]2N[C@H](C1)[C@@H]2c1ccc(/C=C/c2ccccc2)cc1 the AC50 [1] was 4.03 µM (active) and the AC50 [2] was 11.5 µM (active).
For CCCCn1cc[n+](C2=C([N-]S(=O)(=O)c3ccc(Br)cc3)C(=O)c3ccccc3C2=O)c1, the IC50 [3] was 8.28 µM (active) and the AC50 (INS1) was 2.86 µM (active).
In the case of CCOc1ccc(NC(=O)CN(C)C(=O)c2ccc(COc3ccccc3)cc2)cc1OCC, the IC50 [3] is reported as > 100 µM (inactive).
With NNS(=O)(=O)c1ccc2c(c1)Cc1cc(S(=O)(=O)NN)ccc1-2 the AC50 [4] was 0.079 µM (active), the EC50 [5] was 89.5 µM (inactive) and the EC50 [6] was 4.48 µM (active). For the same compound, the AC50 (Caspase-6) was 15.8 µM (active).
With O=[N+]([O-])c1ccc(O)c(-c2cc(C(F)(F)F)nc(-c3ccccc3)n2)c1 the EC50 [7] was 9.18 µM (active), the EC50 [8] was 0.104 µM (active) and the EC50 (BJ [9]) was 2.44 µM (active). For the same compound, the EC50 [10] was 9.13 µM (active), the EC50 [11] was 8.04 µM (inconclusive) and the EC50 (BJ [12]) was 2.95 µM (active). The CC50 [13] was 0.546 µM (active), the EC50 (BJ [14]) was 2.14 µM (inconclusive) and the EC50 [15] was 2.96 µM (active). The EC50 (Streptococcus) was 0.254 µM (active), the EC50 (BJ [16]) was 0.571 µM (inconclusive) and the AC50 (INS1) was 1.05 µM (active). The AC50 [17] was 2.73 µM (active), the AC50 [18] was 1.61 µM (active) and the AC50 [19] was 0.906 µM (active). The AC50 (Paired box protein Pax-8) was 0.811 µM (active).
In the case of N#Cc1ccc(-c2ccc([C@@H]3[C@@H]4CN(C(=O)c5ccc6c(c5)OCO6)C[C@H]3N4)cc2)cc1, the AC50 (Paired box protein Pax-8) is reported as 8.39 µM (active) and the AC50 [20] is reported as 29.1 µM (active).
